The values below come from US20220211810A1 (priority 2019, published 2022).

Assay [1] relates to experimental autoimmune uveitis (EAU) in C57/B16 mice. Briefly: Experimental autoimmune uveitis (EAU), topical treatment, clinical score by fundoscopy. Format: in vivo, mouse. The following applies: twice daily 2-5 μl for 7 days, Maxidex, day 21 post immunization, n=12 eyes.
Assay [2] has as its target T1, nomacopan (EV576, rVA576, OmCI protein, Coversin), Ornithodoros moubata, amino acids 19 to 168 of SEQ ID NO: 2 (SEQ ID NO: 4) (Ornithodoros moubata, UniProt Q5YD59).
T1 sequence (Q5YD59 19-168): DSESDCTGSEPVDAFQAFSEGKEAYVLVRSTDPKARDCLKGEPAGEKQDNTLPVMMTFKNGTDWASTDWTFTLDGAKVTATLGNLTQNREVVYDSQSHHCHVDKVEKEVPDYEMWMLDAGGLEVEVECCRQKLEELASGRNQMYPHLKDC
Briefly: LTB4 binding by fluorescence titration (protein Tyr/Trp fluorescence quenching). As to the method:
This may be carried out as follows:
Purified 100 nM solutions of nomacopan, in 2 mL PBS were applied in a quartz cuvette (10 mm path length; Hellma, Mülheim, Germany) equipped with a magnetic stirrer. Temperature was adjusted to 20° C. and, after equilibrium was reached, protein Tyr/Trp fluorescence was excited at 280 nm (slit width: 15 nm). The fluorescence emission was measured at 340 nm (slit width: 16 nm) corresponding to the emission maximum. […] For calculation of the KD value, data was normalized to an initial fluorescence intensity of 100%, the inner filter effect was corrected using a titration of 3 μM N-acetyl-tryptophanamide solution and data was plotted against the corresponding ligand concentration. Then, non-linear least squares regression based on the law of mass action for bimolecular complex formation was used to fit the data with Origin software version 8.5 (OriginLab, Northampton, Mass., USA) using a published formula (Breustedt et al., 2006).

What is called Kd is the free concentration of one partner at which half of the binding sites on the other are occupied at equilibrium, for simple one-to-one binding. Lower therefore signals higher affinity.

`C[C@@H]1C[C@H]2[C@@H]3CCC4=CC(=O)C=C[C@]4(C)[C@@]3(F)[C@@H](O)C[C@]2(C)[C@@]1(O)C(=O)CO` [dexamethasone]: the “clinical score compared with L-nomacopan treated mice” value in assay [1] is listed as “in line with”. The molecule `CCCCC/C=C\C[C@@H](O)/C=C/C=C/C=C\[C@@H](O)CCCC(=O)O` [LTB4, Leukotriene B4] displayed a dissociation constant (Kd) in assay [2] of 0.2 to 0.3 nM.
